Source: patent US20030207924A1, “Compounds that modulate PPAR activity and methods of preparation” (priority 2002, published 2003)

Experiments:
[1] = target: T1, hPPARβ chimeric receptor (Homo sapiens, UniProt Q03181); experiment: Transient transfection assay in HepG2 cells, Gal4-hPPARβ chimeric receptor, luciferase reporter (Test A); assay type: cell-based
T1 construct: "expression plasmids encoding hPPARα, hPPARβ or mPPARγ chimeric receptors"
T1 sequence (Q03181 171-441 limits assumed): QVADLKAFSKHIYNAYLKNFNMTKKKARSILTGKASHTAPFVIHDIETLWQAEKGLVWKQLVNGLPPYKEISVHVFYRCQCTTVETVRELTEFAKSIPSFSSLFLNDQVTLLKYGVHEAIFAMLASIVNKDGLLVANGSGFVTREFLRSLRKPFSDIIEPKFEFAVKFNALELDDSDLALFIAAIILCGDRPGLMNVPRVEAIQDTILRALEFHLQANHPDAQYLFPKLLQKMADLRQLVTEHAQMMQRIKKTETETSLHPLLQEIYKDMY
Experimental: (§1) 1. Test A. Transient Transfections Assay Using the HepG2 Hepatoma Cell Line.
(§2) HepG2 cells were transiently transfected with an expression plasmids encoding hPPARα, hPPARβ or mPPARγ chimeric receptors and a reporter containing the yeast upstream activating sequence (UAS) upstream of the viral E1B promoter controlling a luciferase reporter gene. In addition, the plasmid pRSVβ-gal was used to control for transfection efficiency. HepG2 cells were grown in DMEM supplemented with 10% FBS and […] non-essential amino acid. On the first day, cells were split into 100 mm dishes at 2.5×10^6/dish and incubated overnight at 37° C./5% CO2. On the second day the cells were transiently transfected with plasmid DNA encoding a chimeric receptor, the luciferase reporter gene; and β-gal. For each 100 mm dish, 15 μg of lucifease reporter (PG5E1b) DNA, 15 μg of Gal4-PPAR chimeric receptor DNA, and 1.5 μg of β-gal plasmid DNA were mixed with 1.4 ml of opti-MEM in the tube. 28 μl of LipoFectamine-2000 reagent was added to 1.4 ml of opti-MEM in the tube, and incubate for 5 min at RT. The diluted Lipofectamine-2000 reagent was combined with the DNA mixture, and incubate for 20 min at RT. After fresh medium was added to each 100 mm dish of cells, 2.8 ml of Lipofectamine2000-DNA mixture was added dropwise to the 100 mm dish containing 14 ml of medium, and incubate 37° C. overnight. On day three cells were trypsinized off the 100 mm dishes and re-plated on 96 well plates. Cells were plated at 2.5×10^4 cells per well in 150 μl of media and 50 μl of compound diluted by media was added. The test compounds added were in the range from 50 μM to 50 pM. After addition of compounds, the plates were incubated at 37° C. for 24 hours. Subsequently cells were washed with once with 100 μl of PBS, lysed, and processed for measuring luciferase and β-gal activity using Dual-Light luciferase kit from Tropix®, according to the manufacturer's recommendations, on an EG&G Bethold MicroLumat LB96P luminometer. EC50 values were obtained using the GraphPad Prism™ program.

[2] = target: T2, hPPARα chimeric receptor (Homo sapiens, UniProt Q07869); experiment: Transient transfection assay in HepG2 cells, Gal4-hPPARα chimeric receptor, luciferase reporter (Test A); assay type: cell-based; settings: HepG2 cells, hPPARα chimeric receptor, luciferase reporter, 24 hours; read-out: EC50-α (Hep G2-hAlpha EC50)
T2 construct: "expression plasmids encoding hPPARα, hPPARβ or mPPARγ chimeric receptors"
T2 sequence (Q07869 200-468 limits assumed): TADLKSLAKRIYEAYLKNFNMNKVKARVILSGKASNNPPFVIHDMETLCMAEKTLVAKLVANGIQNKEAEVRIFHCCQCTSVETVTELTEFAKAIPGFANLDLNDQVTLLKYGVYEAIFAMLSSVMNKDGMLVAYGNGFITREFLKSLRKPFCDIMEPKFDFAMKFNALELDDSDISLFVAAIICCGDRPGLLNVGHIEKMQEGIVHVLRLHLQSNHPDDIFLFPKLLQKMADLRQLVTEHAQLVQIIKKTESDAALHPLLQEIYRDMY
Experimental: as §1
as §2, with “program. […] Accordingly, the compounds of the present invention should find considerable therapeutic applications for hypercholesterolemia and hyperlipidemia.” for “program.”

EC50 [1]	EC50 [2]	Compound	EC50-β (Hep G2-hBeta EC50) ([1]; HepG2 cells, hPPARβ chimeric receptor, luciferase reporter, 24 hours)
0.0488 µM	0.507 µM	Cc1nc(-c2ccc(C(F)(F)F)cc2)sc1CSc1ccc(C(C)(C)C(=O)O)cc1 [Example 11, 2-Methyl-2-{4-[4-methyl-2-(4-trifluoromethyl-phenyl)-thiazol-5-ylmethylsulfanyl]-phenyl}-propionic acid]	
0.473 µM	1.34 µM	Cc1cc(OCC(=O)O)cc(C)c1SCc1sc(-c2ccc(C(F)(F)F)cc2)nc1C [Example 7, {3,5-Dimethyl-4-[4-methyl-2-(4-trifluoromethyl-phenyl)-thiazol-5-ylmethylsulfanyl]-phenoxy}-acetic acid]	
1.24 µM	1.39 µM	COc1cc(SCc2sc(-c3ccc(C(F)(F)F)cc3)nc2C)c(C)cc1OCC(=O)O [Example 6, {2-Methoxy-5-methyl-4-[4-methyl-2-(4-trifluoromethyl-phenyl)-thiazol-5-ylmethylsulfanyl]-phenoxy}-acetic acid]	
0.0199 µM	0.0055 µM	COc1cc(C(C)(C)C(=O)O)ccc1SCc1sc(-c2ccc(C(F)(F)F)cc2)nc1C [Example 17, 2-{3-Methoxy-4-[4-methyl-2-(4-trifluoromethyl-phenyl)-thiazol-5-ylmethylsulfanyl]-phenyl}-2-methyl-propionic acid]	
6.74 µM	0.992 µM	Cc1nc(-c2ccc(C(F)(F)F)cc2)sc1CSc1ccc(C2(C(=O)O)CCCC2)cc1 [Example 14, 1-{4-[4-Methyl-2-(4-trifluoromethyl-phenyl)-thiazol-5-ylmethylsulfanyl]-phenyl}-cyclopentanecarboxylic acid]	

Compound	EC50 [1]	EC50 [2]	EC50-β (Hep G2-hBeta EC50) ([1]; HepG2 cells, hPPARβ chimeric receptor, luciferase reporter, 24 hours)
Cc1nc(-c2ccc(C(F)(F)F)cc2)sc1CSc1ccc(CC(C(=O)O)n2cccc2)cc1 (stereo not drawn) [Example 24, 3-{4-[4-Methtyl-2-(4-trifluoromethyl-phenyl)-thiazol-5-ylmethylsulfanyl]-phenyl}-2-pyrrol-1-yl-propionic acid]		2000 µM	2000 µM
